Data taken from PubChem BioAssay AID330 (DTP/NCI, 2004).
Values joined by “and” are separate entries in the source; they are usually repeats but may differ in a detail not shown here. Equal values may be shown once. Toxic doses and inconclusive results are not listed. Rule for the calls: active = survival T/C of 150% or more; inactive = T/C below 125% in these data.

Test system: P388 leukemia ip, CD2F1 mice, survival T/C
Experiment: NCI In Vivo Anticancer Drug Screen. Data for tumor model P388 Leukemia (intraperitoneal) in CD2F1 (CDF1) mice
Details: endpoint: median survival time, higher = longer survival
Procedure, shortened: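 Mice carrying the transplanted tumor received test compound or vehicle. Survival was recorded in each group, and the value is the treated-group measurement divided by that of the vehicle-treated control group.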

[1] = dose: 50.0 mg/kg/injection, schedule: Q01DX009 (ip), vehicle: saline
[2] = dose: 100.0 mg/kg/injection, schedule: Q01DX009 (ip), vehicle: saline
[3] = dose: 200.0 mg/kg/injection, schedule: Q01DX009 (ip), vehicle: saline
[4] = dose: 60.0 mg/kg/injection, schedule: Q01DX005 (ip), vehicle: saline with Tween-80
[5] = dose: 120.0 mg/kg/injection, schedule: Q01DX005 (ip), vehicle: saline with Tween-80
[6] = dose: 50.0 mg/kg/injection, schedule: Q01DX005 (ip), vehicle: saline with Tween-80
[7] = dose: 100.0 mg/kg/injection, schedule: Q01DX005 (ip), vehicle: saline with Tween-80
[8] = dose: 100.0 mg/kg/injection, schedule: Q01DX009 (ip), vehicle: saline with Tween-80
[9] = dose: 200.0 mg/kg/injection, schedule: Q01DX005 (ip), vehicle: saline with Tween-80
[10] = dose: 200.0 mg/kg/injection, schedule: Q01DX009 (ip), vehicle: saline with Tween-80
[11] = dose: 400.0 mg/kg/injection, schedule: Q01DX009 (ip), vehicle: saline with Tween-80
[12] = dose: 240.0 mg/kg/injection, schedule: Q01DX005 (ip), vehicle: saline with Tween-80

Measured: T/C

COC(=O)Nc1cnc(C)c(C)c1-c1ccc(OC)c(OC)c1OCc1ccccc1
inactive: dose: 0.05 mg/kg/injection, schedule: Q01DX009 (ip), vehicle: water 96 % of control | dose: 0.1 mg/kg/injection, schedule: Q01DX009 (ip), vehicle: water 111 % of control | dose: 0.2 mg/kg/injection, schedule: Q01DX009 (ip), vehicle: water 110 % of control | dose: 0.4 mg/kg/injection, schedule: Q01DX009 (ip), vehicle: water 104 % of control and 105 % of control | dose: 0.8 mg/kg/injection, schedule: Q01DX009 (ip), vehicle: water 106 % of control | dose: 1.6 mg/kg/injection, schedule: Q01DX009 (ip), vehicle: water 109 % of control | dose: 3.2 mg/kg/injection, schedule: Q01DX009 (ip), vehicle: water 103 % of control | dose: 6.25 mg/kg/injection, schedule: Q01DX009 (ip), vehicle: other 103 % of control | dose: 6.4 mg/kg/injection, schedule: Q01DX009 (ip), vehicle: water 104 % of control | dose: 12.5 mg/kg/injection, schedule: Q01DX009 (ip), vehicle: other 103 % of control | dose: 25.0 mg/kg/injection, schedule: Q01DX009 (ip), vehicle: other 104 % of control | dose: 50.0 mg/kg/injection, schedule: Q01DX009 (ip), vehicle: other 98 % of control | dose: 100.0 mg/kg/injection, schedule: Q01DX009 (ip), vehicle: other 108 % of control | dose: 200.0 mg/kg/injection, schedule: Q01DX009 (ip), vehicle: other 99 % of control | dose: 400.0 mg/kg/injection, schedule: Q01DX009 (ip), vehicle: other 99 % of control

Cn1c2c(c3ccccc31)-c1ncncc1CC2
inactive: dose: 50.0 mg/kg/injection, schedule: Q01DX005 (ip), vehicle: saline + Tween-80 + alcohol 106 % of control | dose: 100.0 mg/kg/injection, schedule: Q01DX005 (ip), vehicle: saline + Tween-80 + alcohol 92 % of control | dose: 200.0 mg/kg/injection, schedule: Q01DX005 (ip), vehicle: saline + Tween-80 + alcohol 103 % of control

O=[N+]([O-])c1ccc(C2OC(c3ccncc3)=NC2CO)cc1 (stereo not drawn)
inactive: [1] 97 % of control | [2] 91 % of control | [3] 106 % of control

c1ccc(-c2nc(-c3ccccn3)cc3ccccc23)cc1
inactive: dose: 100.0 mg/kg/injection, schedule: Q01DX001 (ip), vehicle: saline with Tween-80 91 % of control | dose: 200.0 mg/kg/injection, schedule: Q01DX001 (ip), vehicle: saline with Tween-80 92 % of control | dose: 400.0 mg/kg/injection, schedule: Q01DX001 (ip), vehicle: saline with Tween-80 112 % of control

Cc1ccc(S(=O)(=O)c2cc3ccccc3oc2=O)cc1
inactive: [4] 91 % of control | [5] 88 % of control

CS(C)=NS(C)(=O)=O
inactive: dose: 100.0 mg/kg/injection, schedule: Q01DX001 (ip), vehicle: saline 113 % of control | dose: 200.0 mg/kg/injection, schedule: Q01DX001 (ip), vehicle: saline 106 % of control | dose: 400.0 mg/kg/injection, schedule: Q01DX001 (ip), vehicle: saline 107 % of control

C#CCNC1=CC(=O)CCC1
inactive: dose: 60.0 mg/kg/injection, schedule: Q01DX005 (ip), vehicle: saline 100 % of control | dose: 120.0 mg/kg/injection, schedule: Q01DX005 (ip), vehicle: saline 106 % of control | dose: 240.0 mg/kg/injection, schedule: Q01DX005 (ip), vehicle: saline 118 % of control

NCC1CCC(C(=O)O)CC1 (stereo not drawn)
inactive: [6] 94 % of control | [7] 92 % of control | [8] 99 % of control | [9] 100 % of control | [10] 101 % of control | dose: 400.0 mg/kg/injection, schedule: Q01DX005 (ip), vehicle: saline with Tween-80 103 % of control | [11] 100 % of control | dose: 800.0 mg/kg/injection, schedule: Q01DX005 (ip), vehicle: saline with Tween-80 89 % of control

C=CCC(CC1CC2CCCCN2O1)OCc1ccccc1 (stereo not drawn)
inactive: dose: 100.0 mg/kg/injection, schedule: Q04DX003 (ip), vehicle: saline with Tween-80 101 % of control | dose: 200.0 mg/kg/injection, schedule: Q04DX003 (ip), vehicle: saline with Tween-80 105 % of control | dose: 400.0 mg/kg/injection, schedule: Q04DX003 (ip), vehicle: saline with Tween-80 104 % of control

COc1ccc(C)cc1NC(=S)NC(=O)/C=C/c1ccccc1
inactive: dose: 25.0 mg/kg/injection, schedule: Q01DX009 (ip), vehicle: saline 97 % of control | [1] 87 % of control | [2] 96 % of control | [3] 98 % of control

O=c1[nH]c(-c2ccncc2)nnc1-c1ccc(Cl)cc1
inactive: dose: 100.0 mg/kg/injection, schedule: Q04DX002 (ip), vehicle: saline with Tween-80 88 % of control | dose: 200.0 mg/kg/injection, schedule: Q04DX002 (ip), vehicle: saline with Tween-80 93 % of control

CC1CCC(C(=O)C2CCCCC2CC2CCCCC2)CC1 (stereo not drawn)
inactive: [6] 105 % of control | [7] 102 % of control | [9] 96 % of control

COC(=O)/C=C(\C)Oc1c(Cl)c(Cl)c(Cl)c(Cl)c1Cl
inactive: dose: 50.0 mg/kg/injection, schedule: Q04DX003 (ip), vehicle: saline sonified 110 % of control | [8] 91 % of control | dose: 100.0 mg/kg/injection, schedule: Q04DX003 (ip), vehicle: saline sonified 110 % of control | [10] 100 % of control | dose: 200.0 mg/kg/injection, schedule: Q04DX003 (ip), vehicle: saline sonified 110 % of control | [11] 91 % of control

CN(C)C1C(=O)C(C(=O)NCNCCC(=O)O)=C(O)C2(O)C(=O)C3=C(O)c4c(O)cccc4C(C)(O)C3CC12 (stereo not drawn)
inactive: dose: 50.0 mg/kg/injection, schedule: Q01DX005 (ip), vehicle: saline 101 % of control | dose: 100.0 mg/kg/injection, schedule: Q01DX005 (ip), vehicle: saline 94 % of control | dose: 200.0 mg/kg/injection, schedule: Q01DX005 (ip), vehicle: saline 101 % of control

CN1Cc2[nH]c3c(c2C(O)C1)C(=O)CC(C)(C)C3 (stereo not drawn)
inactive: dose: 50.0 mg/kg/injection, schedule: Q04DX002 (ip), vehicle: saline 94 % of control | dose: 100.0 mg/kg/injection, schedule: Q04DX002 (ip), vehicle: saline 103 % of control | dose: 200.0 mg/kg/injection, schedule: Q04DX002 (ip), vehicle: saline 101 % of control

NS(=O)(=O)c1ccc(NCc2cnc3ccccc3c2)cc1
inactive: dose: 5.0 mg/kg/injection, schedule: Q01DX009 (ip), vehicle: saline 94 % of control | dose: 10.0 mg/kg/injection, schedule: Q01DX009 (ip), vehicle: saline 88 % of control | dose: 20.0 mg/kg/injection, schedule: Q01DX009 (ip), vehicle: saline 98 % of control

C[CH2][Ge]([CH2]C)[O][Ge]([CH2]C)[CH2]C.c1cc[c]([Ge]([c]2ccccc2)[c]2ccccc2)cc1.c1cc[c]([Ge]([c]2ccccc2)[c]2ccccc2)cc1
inactive: [4] 88 % of control | [5] 98 % of control | [12] 98 % of control

O=C(CCCCCCCCCCC(=O)NO)NO
inactive: [4] 105 % of control | [5] 106 % of control | [12] 110 % of control

c1c[nH]c(C23CC4CC(CC(C4)C2)C3)n1
inactive: dose: 12.5 mg/kg/injection, schedule: Q01DX005 (ip), vehicle: saline with Tween-80 100 % of control | dose: 25.0 mg/kg/injection, schedule: Q01DX005 (ip), vehicle: saline with Tween-80 100 % of control | [6] 110 % of control and 94 % of control

O=C1/C(=c2\c3ccccc3n3c(=O)c4ccccc4nc23)Nc2ccccc21
inactive: dose: 25.0 mg/kg/injection, schedule: Q01DX005 (ip), vehicle: Klucel (hydroxypropylcellulose) (HPC) 92 % of control | dose: 50.0 mg/kg/injection, schedule: Q01DX005 (ip), vehicle: Klucel (hydroxypropylcellulose) (HPC) 91 % of control | dose: 100.0 mg/kg/injection, schedule: Q01DX005 (ip), vehicle: Klucel (hydroxypropylcellulose) (HPC) 91 % of control

COC1=CC(=O)C([C@@H]2COc3cc(O)ccc3C2)=CC1=O
inactive: dose: 3.75 mg/kg/injection, schedule: Q01DX009 (ip), vehicle: Klucel (hydroxypropylcellulose) (HPC) 95 % of control | dose: 7.5 mg/kg/injection, schedule: Q01DX009 (ip), vehicle: Klucel (hydroxypropylcellulose) (HPC) 99 % of control | dose: 15.0 mg/kg/injection, schedule: Q01DX009 (ip), vehicle: Klucel (hydroxypropylcellulose) (HPC) 95 % of control | dose: 30.0 mg/kg/injection, schedule: Q01DX009 (ip), vehicle: Klucel (hydroxypropylcellulose) (HPC) 98 % of control
